# Test results as given in patent US20150283233A1, “Compositions and Methods for Enhancing Immune Responses” (Gencia Corporation, priority 2012, published 2015).
# Tested on: MHC I
# Assay: MHC I western blot of orthotopic MiaPaca-2 pancreatic xenografts, with or without gemcitabine
# Format: in vivo, BALB/c nude mouse
# Conditions: gemcitabine only, 40 mg/kg every 3 days, orthotopic MiaPaca-2 tumors, FIG. 11
# Method: MiaPaCa-2 tumor cells was maintained in vitro as monolayer culture in DMEM medium supplemented with 10% fetal bovine serum, 2.5% horse serum, 100 Um′ penicillin and 100 μg/ml streptomycin, and 2 mM L-glutamine at 37° C. in an atmosphere of 5% CO2 in air. The tumor cells were routinely subcultured twice weekly by trypsin-EDTA treatment. Cells in an exponential growth phase will be harvested and counted for tumor inoculation. Before orthotopic implantation, 5×10^6 MiaPaca-2 cells in 50 μl PBS mixed with 50 μl Matrigel were inoculated subcutaneously at the right flank of each BALB/c nude mouse. Upon subcutaneous tumor size reaching about 500 mm^3, tumors were collected for orthotopic implantation.
# For orthotopic MiaPaca-2 xenografts, mice were anesthetized by intraperitoneal injection of pentobarbital sodium (50 mg/kg) before tumor inoculation. The abdominal skin was sterilized and laparotomy was performed to expose the pancreas. Each mouse was inoculated with a subcutaneous MiaPaca-2 tumor fragment (2-3 mm in diameter) in the subcapsular region of the pancreas for tumor development. The abdominal wall was closed using No. 6 suture and then sterilized with povidone iodine solution. The day of surgery was denoted as Day 0 (D0). The treatments with vehicle, gemcitabine only, PTD-TFAM only, and PTD-TFAM in combination with gemcitabine were started at 10 days post tumor fragment inoculation. […]
smiles,measurement,value
Nc1ccn([C@@H]2O[C@H](CO)[C@@H](O)C2(F)F)c(=O)n1 [Gemcitabine],MHC I expression,decreased
